According to patent US20100305113A1, “Substituted Imidazopyridazines as Lipid Kinase Inhibitors” (priority 2007, published 2010):

Key:
Format in all cases: biochemical
Conditions in all cases: Enzymatic Data
[1] = target: T1, PI3K alfa (Homo sapiens, UniProt P42336); experiment: PI3K alfa enzymatic assay (Kinase-Glo luminescence)
T1 construct: p85(iSH2) fusion partner (same polypeptide; see partner chain) (N); 12x Gly linker (N); His tag (C); made in house; host or cells: baculovirus; Tn5 (Trichoplusia ni) or TiniPro insect cells
T1 sequence (P42336 with tags, fused parts or gaps limits assumed): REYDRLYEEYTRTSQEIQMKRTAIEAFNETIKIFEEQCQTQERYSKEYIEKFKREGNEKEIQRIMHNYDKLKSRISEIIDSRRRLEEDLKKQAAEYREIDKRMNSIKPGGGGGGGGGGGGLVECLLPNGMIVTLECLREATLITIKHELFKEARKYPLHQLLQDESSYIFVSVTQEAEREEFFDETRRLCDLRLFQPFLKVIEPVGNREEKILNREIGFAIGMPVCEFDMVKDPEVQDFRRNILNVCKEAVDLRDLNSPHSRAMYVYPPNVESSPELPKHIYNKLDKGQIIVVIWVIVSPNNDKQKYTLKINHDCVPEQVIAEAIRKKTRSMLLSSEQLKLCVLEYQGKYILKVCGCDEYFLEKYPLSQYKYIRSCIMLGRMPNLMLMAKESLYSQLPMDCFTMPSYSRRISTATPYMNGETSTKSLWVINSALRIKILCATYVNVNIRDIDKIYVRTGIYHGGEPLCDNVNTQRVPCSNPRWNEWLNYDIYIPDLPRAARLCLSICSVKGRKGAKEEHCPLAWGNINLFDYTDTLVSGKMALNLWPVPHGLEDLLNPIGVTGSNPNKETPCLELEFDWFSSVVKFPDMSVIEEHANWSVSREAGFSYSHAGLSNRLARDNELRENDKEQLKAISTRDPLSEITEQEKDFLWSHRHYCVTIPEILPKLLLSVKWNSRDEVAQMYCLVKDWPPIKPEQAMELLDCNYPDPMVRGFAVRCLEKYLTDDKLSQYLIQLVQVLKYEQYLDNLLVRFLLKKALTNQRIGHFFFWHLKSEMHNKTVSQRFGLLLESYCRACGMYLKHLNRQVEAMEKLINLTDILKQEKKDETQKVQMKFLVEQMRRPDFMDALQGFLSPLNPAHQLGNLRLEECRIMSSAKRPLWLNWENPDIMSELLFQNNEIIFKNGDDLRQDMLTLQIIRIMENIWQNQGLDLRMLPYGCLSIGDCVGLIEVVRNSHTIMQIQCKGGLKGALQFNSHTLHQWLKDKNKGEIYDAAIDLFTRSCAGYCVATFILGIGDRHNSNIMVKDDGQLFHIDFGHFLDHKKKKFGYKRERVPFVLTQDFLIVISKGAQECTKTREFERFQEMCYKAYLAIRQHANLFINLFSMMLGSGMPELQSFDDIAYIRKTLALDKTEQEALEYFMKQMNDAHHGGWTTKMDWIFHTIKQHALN
Description: (§1) In a more preferred assay, the kinase reaction is performed in a final volume of 10 μL per well of a low volume non binding CORNING, 384 well black plate (Cat. No. #3676). The final concentrations of ATP and phosphatidyl inositol (PI) in the assay are 1 μM and 10 μg/mL respectively. The reaction is started by the addition of ATP.
(§2) The components of the assay are added per well as follows:
(§3) 50 nL test compounds in 90% DMSO per well, in columns 1-20, 8 concentrations (⅓ and 1/3.33 serial dilution step) in single. • Low control: 50 nL of 90% DMSO in half the wells of columns 23-24 (0.45% in final). • High control: 50 nL of reference compound (e.g. compound of Example 7 in WO 2006/122806, incorporated by reference herein that regard) in the other half of columns 23-24 (2.5 μM in final). • Standard: 50 nL of reference compound as just mentioned diluted as the test compounds in columns 21-22 • 20 mL ‘buffer’ are prepared per assay: • 200 μL of 1M TRIS HCl pH7.5 (10 mM in final) • 60 μL of 1M MgCl2 (3 mM in final) • 500 μL of 2M NaCl (50 mM in final) • 100 μL of 10% CHAPS (0.05% in final) • 200 μL of 100 mM DTT (1 mM in final) • 18.94 mL of nanopure water • 10 mL ‘PI’ are prepared per assay: • 200 μL of 1 mg/ml L-alpha-Phosphatidylinositol (Liver Bovine, Avanti Polar Lipids Cat. No. 840042C MW=909.12) prepared in 3% OctylGlucoside ([…]) • 9.8 mL of ‘buffer’ • 10 mL ‘ATP’ are prepared per assay: • 6.7 μL of 3 mM stock of ATP giving a final concentration of 1 μM per well • 10 mL of ‘buffer’ • 2.5 mL of each PI3K construct are prepared per assay in ‘PI’ with the following final concentration: • 10 nM PI3K alfa BV-1075 • 25 nM beta BV-949 • 10 nM delta BV-1060 • 150 nM gamma BV-950 • 5 μL of ‘PI/PI3K’ are added per well. • 5 μl ‘ATP’ are added per well to start the reaction. • The plates are then incubated at room temperature for 60 minutes (alfa, beta, delta) or 120 minutes (gamma). • The reaction is terminated by the addition of 10 μL Kinase-Glo (Promega Cat. No. #6714). • The assay plates are read after 10 minutes in Synergy 2 reader (BioTek, Vermont USA) with an integration time of 100 milliseconds and sensitivity set to 191. • Output: The High control is around 60′000 counts and the Low control is 30′000 or lower • This luminescence assay gives a useful Z′ ratio between 0.4 and 0.7 The Z′ value is a universal measurement of the robustness of an assay. A Z′ between 0.5 and 1.0 is considered an excellent assay.
(§4) IC50 is determined by a four parameter curve fitting routine that comes aloneg with “excel fit”. A 4 Parameter logistic equation is used to calculate IC50 values (IDBS XLfit) of the percentage inhibition of each compound at 8 concentrations (usually 10, 3.0, 1.0, 0.3, 0.1, 0.030, 0.010 and 0.003 μM). Alternatively, IC50 values are calculated using idbsXLfit model 204, which is a 4 parameter logistic model.

[2] = target: T2, PI3K beta (Homo sapiens, UniProt P42338); experiment: PI3K beta enzymatic assay (Kinase-Glo luminescence)
T2 construct: for the full-length p110-b subunit are generated and fused by overlapping PCR; p85(iSH2) fusion partner (same polypeptide; see partner chain) (N); Gly linker (N); His tag (C); made in house; host or cells: baculovirus; Tn5 (Trichoplusia ni) or TiniPro insect cells
T2 sequence (P42338 with tags, fused parts or gaps limits assumed): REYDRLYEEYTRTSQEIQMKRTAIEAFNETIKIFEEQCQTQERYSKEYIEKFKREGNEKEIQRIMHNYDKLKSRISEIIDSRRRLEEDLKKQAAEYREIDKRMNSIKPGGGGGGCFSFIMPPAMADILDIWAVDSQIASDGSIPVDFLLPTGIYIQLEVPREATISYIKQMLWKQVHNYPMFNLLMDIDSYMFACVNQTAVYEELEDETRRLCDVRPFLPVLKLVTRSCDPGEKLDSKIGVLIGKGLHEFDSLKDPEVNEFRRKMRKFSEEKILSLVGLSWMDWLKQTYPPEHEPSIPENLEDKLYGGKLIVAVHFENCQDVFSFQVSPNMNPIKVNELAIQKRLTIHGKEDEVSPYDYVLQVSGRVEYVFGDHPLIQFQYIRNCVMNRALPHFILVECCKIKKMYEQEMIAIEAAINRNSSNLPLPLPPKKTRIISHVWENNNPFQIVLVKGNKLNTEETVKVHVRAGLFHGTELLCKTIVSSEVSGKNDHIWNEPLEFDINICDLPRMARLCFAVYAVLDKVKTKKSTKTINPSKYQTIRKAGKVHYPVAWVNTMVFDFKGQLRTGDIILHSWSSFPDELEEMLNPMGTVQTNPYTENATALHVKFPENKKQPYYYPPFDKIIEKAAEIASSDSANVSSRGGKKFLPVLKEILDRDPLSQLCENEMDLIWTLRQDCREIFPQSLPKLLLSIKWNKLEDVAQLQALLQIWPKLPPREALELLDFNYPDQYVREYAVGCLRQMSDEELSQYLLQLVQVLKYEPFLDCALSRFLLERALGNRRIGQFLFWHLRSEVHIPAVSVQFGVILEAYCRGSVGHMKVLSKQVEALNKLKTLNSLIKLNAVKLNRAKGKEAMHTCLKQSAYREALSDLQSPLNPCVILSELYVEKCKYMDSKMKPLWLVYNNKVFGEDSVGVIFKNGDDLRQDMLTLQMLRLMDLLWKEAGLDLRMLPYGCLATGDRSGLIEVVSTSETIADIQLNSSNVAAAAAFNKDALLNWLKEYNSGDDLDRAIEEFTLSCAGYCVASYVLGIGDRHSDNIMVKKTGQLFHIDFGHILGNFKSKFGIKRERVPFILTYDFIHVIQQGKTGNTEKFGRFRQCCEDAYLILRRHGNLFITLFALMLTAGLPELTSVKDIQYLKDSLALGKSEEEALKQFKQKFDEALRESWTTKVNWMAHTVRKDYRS
Description: as §1, §2, §3
PI3Kβ BV-949 p85(iSH2)-Gly linker-p110b (Full-Length)-C-Term His Tag
as §4

[3] = target: T3, PI3K delta (Homo sapiens, UniProt O00329); experiment: PI3K delta enzymatic assay (Kinase-Glo luminescence)
T3 construct: for the full-length p110-d subunit are generated and fused by overlapping PCR; p85(iSH2) fusion partner (same polypeptide; see partner chain) (N); Gly linker (N); His tag (C); made in house; host or cells: baculovirus; Tn5 (Trichoplusia ni) or TiniPro insect cells
T3 sequence (O00329 with tags, fused parts or gaps limits assumed): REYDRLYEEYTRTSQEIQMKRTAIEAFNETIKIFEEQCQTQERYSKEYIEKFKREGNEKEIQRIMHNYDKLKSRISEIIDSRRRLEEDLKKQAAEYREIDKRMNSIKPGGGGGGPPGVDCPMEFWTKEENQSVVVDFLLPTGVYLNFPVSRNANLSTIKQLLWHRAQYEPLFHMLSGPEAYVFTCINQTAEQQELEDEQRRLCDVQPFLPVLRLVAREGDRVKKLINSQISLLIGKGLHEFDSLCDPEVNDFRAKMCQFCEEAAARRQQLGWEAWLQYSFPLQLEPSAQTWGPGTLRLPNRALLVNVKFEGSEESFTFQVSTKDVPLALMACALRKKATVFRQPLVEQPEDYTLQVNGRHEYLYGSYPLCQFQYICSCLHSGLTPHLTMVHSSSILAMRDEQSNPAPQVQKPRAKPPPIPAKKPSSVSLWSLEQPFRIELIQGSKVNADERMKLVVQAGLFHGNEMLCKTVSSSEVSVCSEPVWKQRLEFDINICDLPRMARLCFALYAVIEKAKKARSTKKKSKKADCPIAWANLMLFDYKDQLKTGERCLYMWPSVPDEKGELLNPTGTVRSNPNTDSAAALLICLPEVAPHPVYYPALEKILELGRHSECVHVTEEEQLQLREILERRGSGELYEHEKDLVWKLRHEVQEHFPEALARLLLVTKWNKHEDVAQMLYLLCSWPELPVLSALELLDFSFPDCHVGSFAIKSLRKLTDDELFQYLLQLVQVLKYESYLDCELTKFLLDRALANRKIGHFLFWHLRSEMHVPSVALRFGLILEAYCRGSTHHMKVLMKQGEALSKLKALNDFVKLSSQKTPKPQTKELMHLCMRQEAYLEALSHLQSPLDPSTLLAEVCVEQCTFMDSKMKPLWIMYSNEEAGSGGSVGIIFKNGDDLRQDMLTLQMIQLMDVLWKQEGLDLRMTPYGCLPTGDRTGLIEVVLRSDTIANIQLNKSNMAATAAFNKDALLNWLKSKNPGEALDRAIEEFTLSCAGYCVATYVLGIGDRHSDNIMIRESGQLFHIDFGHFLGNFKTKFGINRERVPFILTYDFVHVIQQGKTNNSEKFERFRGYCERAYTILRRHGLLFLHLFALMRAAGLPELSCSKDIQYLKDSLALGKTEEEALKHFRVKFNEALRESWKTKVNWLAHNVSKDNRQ
Description: as §1, §2, §3
PI3Kδ BV-1060 p85(iSH2)-Gly Linker-p110d (Full-Length)-C-term His Tact
as §4

[4] = target: T4, PI3K gamma (Homo sapiens, UniProt P48736); experiment: PI3K gamma enzymatic assay (Kinase-Glo luminescence)
T4 construct: His tag (C); made in house; host or cells: construct from Roger Williams lab (MRC LMB); baculovirus (pVL1393); Tn5 (Trichoplusia ni) or TiniPro insect cells
T4 sequence (P48736 144-1102 limits assumed): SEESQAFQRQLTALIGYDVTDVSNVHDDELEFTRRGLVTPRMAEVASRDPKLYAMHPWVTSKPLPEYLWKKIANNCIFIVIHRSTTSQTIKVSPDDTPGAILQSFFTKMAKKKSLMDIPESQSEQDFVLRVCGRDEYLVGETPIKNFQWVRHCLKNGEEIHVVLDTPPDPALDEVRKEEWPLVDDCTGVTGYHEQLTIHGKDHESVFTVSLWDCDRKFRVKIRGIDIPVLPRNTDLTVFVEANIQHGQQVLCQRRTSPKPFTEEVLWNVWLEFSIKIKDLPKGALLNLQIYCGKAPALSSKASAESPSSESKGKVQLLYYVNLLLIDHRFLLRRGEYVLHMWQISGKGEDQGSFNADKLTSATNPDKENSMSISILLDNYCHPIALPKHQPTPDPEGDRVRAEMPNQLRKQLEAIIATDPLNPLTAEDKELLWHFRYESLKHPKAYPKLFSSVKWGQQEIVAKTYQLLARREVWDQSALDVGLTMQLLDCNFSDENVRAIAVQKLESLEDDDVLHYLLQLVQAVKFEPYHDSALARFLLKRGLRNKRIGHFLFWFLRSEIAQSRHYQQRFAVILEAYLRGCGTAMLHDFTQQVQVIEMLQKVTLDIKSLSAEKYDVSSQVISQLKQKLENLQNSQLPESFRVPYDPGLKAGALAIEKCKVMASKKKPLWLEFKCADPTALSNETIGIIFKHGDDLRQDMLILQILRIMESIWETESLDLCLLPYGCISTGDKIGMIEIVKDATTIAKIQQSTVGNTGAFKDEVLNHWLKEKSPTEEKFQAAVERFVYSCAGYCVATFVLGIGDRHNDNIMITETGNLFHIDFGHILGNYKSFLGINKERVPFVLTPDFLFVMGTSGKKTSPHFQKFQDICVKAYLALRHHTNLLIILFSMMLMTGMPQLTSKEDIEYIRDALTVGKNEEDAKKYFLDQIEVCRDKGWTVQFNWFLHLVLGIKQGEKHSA
Description: as §1, §2, §3, §4

IC50 [1] [nM]	IC50 [2] [nM]	IC50 [3] [nM]	IC50 [4] [nM]	Compound
31	2080	255	477	COc1cc(-c2ccc3nc(C)c(-c4cnc(N)c(C(F)(F)F)c4)n3n2)ccc1OCCN1CCNC1=O [Example 104, 1-(2-{4-[3-(6-Amino-5-trifluoromethyl-pyridin-3-yl)-2-methyl-imidazo[1,2-b]pyridazin-6-yl]-2-methoxy-phenoxy}-ethyl)-imidazolidin-2-one]
51	3030	41	98	COc1ccc(-c2ccc3nc(C)c(-c4ccnc(N(C)CCN(C)C)n4)n3n2)cc1OC [Example 88, N-{4-[6-(3,4-Dimethoxy-phenyl)-2-methyl-imidazo[1,2-b]pyridazin-3-yl]-pyrimidin-2-yl}-N,N′,N′-trimethyl-ethane-1,2-diamine]
368	> 9100	> 9100	> 9100	COc1cccc(C(=O)NCCOc2ccc(-c3ccc4nc(C)c(-c5cnc(N)c(C(F)(F)F)c5)n4n3)cc2OC)c1 [Example 39]
111	1570	1090	613	COc1ccc(-c2ccc3nc(C)c(-c4ccc(N5CCOCC5)nc4)n3n2)cc1OC [Example 5]
455	4190	2710	1850	COc1ccc(-c2ccc3nc(C)c(-c4cncc(C#N)c4)n3n2)cc1OC [Example 6]
30	> 9100	372	503	COc1cc(-c2ccc3nc(C)c(-c4cnc(N)c(C(F)(F)F)c4)n3n2)ccc1OCCNC(=O)C(C)C [Example 81]
> 25000	> 25000	> 25000	> 25000	COc1ccc(-c2ccc3nc(C)c(-c4ncccc4C)n3n2)cc1OC [Example 16, 6-(3,4-Dimethoxy-phenyl)-2-methyl-3-(3-methyl-pyridin-2-yl)-imidazo[1,2-b]pyridazine]
99	> 9100	2040	648	COc1cc(-c2ccc3nc(C)c(-c4cnc(N)c(C(F)(F)F)c4)n3n2)ccc1OCCNC(=O)OC(C)C [Example 79]
93	> 9100	1590	2740	COc1cc(-c2ccc3nc(C)c(-c4cnc(N)c(C(F)(F)F)c4)n3n2)ccc1OCCNC(=O)c1ccncc1 [Example 29]
4100	> 9100	3400	> 9100	CCS(=O)(=O)c1ccc(-c2c(C)nc3ccc(-c4ccc(OCCOCCOCCOC)c(OC)c4)nn23)cc1 [Example 91, 3-(4-Ethanesulfonyl-phenyl)-6-(3-methoxy-4-{2-[2-(2-methoxy-ethoxy)-ethoxy]-ethoxy}-phenyl)-2-methyl-imidazo[1,2-b]pyridazine]
1040	> 9100	1180	> 9100	COc1cc(-c2ccc3nc(C)c(-c4ccc(S(C)(=O)=O)cc4)n3n2)ccc1OC1CCNCC1 [Example 101, 3-(4-Methanesulfonyl-phenyl)-6-[3-methoxy-4-(piperidin-4-yloxy)-phenyl]-2-methyl-imidazo[1,2-b]pyridazine]
233	> 9100	> 9100	2300	COc1ccc(C(=O)NCCOc2ccc(-c3ccc4nc(C)c(-c5cnc(N)c(C(F)(F)F)c5)n4n3)cc2OC)cc1OC [Example 37]
1640	> 9100	> 9100	6860	COc1cccc(NC(=O)NCCCOc2cc(-c3ccc4nc(C)c(-c5cnc(N)c(C(F)(F)F)c5)n4n3)ccc2OC)c1 [Example 89, 1-(3-{5-[3-(6-Amino-5-trifluoromethyl-pyridin-3-yl)-2-methyl-imidazo[1,2-b]pyridazin-6-yl]-2-methoxy-phenoxy}-propyl)-3-(3-methoxy-phenyl)-urea]
75	3790	281	1260	COc1cc(-c2ccc3nc(C)c(-c4cnc(N)c(C(F)(F)F)c4)n3n2)ccc1OCCCN1CCCC1=O [Example 77]
781	> 9100	889	1500	COc1ccc(S(=O)(=O)n2ccc(-c3c(C)nc4ccc(-c5ccc(OC)c(OC)c5)nn34)n2)cc1 [Example 22, 6-(3,4-Dimethoxy-phenyl)-3-[1-(4-methoxy-benzenesulfonyl)-1H-pyrazol-3-yl]-2-methyl-imidazo[1,2-b]pyridazine]
181	4480	2020	797	COc1ccc(-c2ccc3nc(C)c(-c4cnccn4)n3n2)cc1OC [Example 17, 6-(3,4-Dimethoxy-phenyl)-2-methyl-3-pyrazin-2-yl-imidazo[1,2-b]pyridazine]
9090	> 9100	> 9100	> 9100	COc1cc(-c2ccc3nc(C)c(-c4ccc(S(C)(=O)=O)cc4)n3n2)ccc1OC1CCN(C(=O)OC(C)(C)C)CC1 [Example 98, 4-{4-[3-(4-Methanesulfonyl-phenyl)-2-methyl-imidazo[1,2-b]pyridazin-6-yl]-2-methoxy-phenoxy}-piperidine-1-carboxylic acid tert-butyl ester]
220	3240	1390	358	COc1ccc(-c2ccc3nc(C)c(-c4cc[nH]n4)n3n2)cc1OC [Example 20, 6-(3,4-Dimethoxy-phenyl)-2-methyl-3-(1H-pyrazol-3-yl)-imidazo[1,2-b]pyridazine]
38	> 9100	748	4320	COc1cc(-c2ccc3nc(C)c(-c4cnc(N)c(C(F)(F)F)c4)n3n2)ccc1OCCNC(=O)c1cccnc1 [Example 31]
28	> 9100	1660	2520	COc1cc(-c2ccc3nc(C)c(-c4cnc(N)c(C(F)(F)F)c4)n3n2)ccc1OCCNC(=O)Nc1cccnc1 [Example 51]
294	> 9100	> 9100	933	COc1cc(-c2ccc3nc(C)c(-c4cnc(N)c(C(F)(F)F)c4)n3n2)ccc1OCCNC(=O)c1cc(OC)c(OC)c(OC)c1 [Example 41]
49	8730	435	1520	Cc1nc2ccc(-c3ccc(OCC4(NC(=O)C(C)C)COC4)cc3)nn2c1-c1cnc(N)c(C(F)(F)F)c1 [Example 114, N-(3-{4-[3-(6-Amino-5-trifluoromethyl-pyridin-3-yl)-2-methyl-innidazo[1,2-b]pyridazin-6-yl]-phenoxymethyl}-oxetan-3-yl)-isobutyramide]
96.4	2310	514		COc1ccc(-c2c(C)nc3ccc(-c4ccc(OC)c(OC)c4)nn23)cn1 [Example 3]
